Patent US7700543B2, “Use NF-κB inhibition in combination therapy for cancer” (The University of North Carolina at Chapel Hill, priority 1997, dated 2010)
Entries after “also recorded” stand apart in the source; their conditions may differ. Peptide text beside a SMILES is read from it. * marks the point of attachment. Cbz = O=C(OCc1ccccc1)*

Assays:
[1] = system: NF-κB; test: NF-κB activation by CPT-11 (data not shown); type: cell-based
[2] = system: HT1080V cells; test: Cell viability experiments, enhancement of TNF-induced cell killing by proteasome inhibitor; type: cell-based, human; settings: dose-dependent, data not shown
From the text: The effect of a proteasome inhibitor on TNF-treated cells was investigated. Proteasome inhibitors of the peptide aldehyde category are potent inhibitors of NF-κB activation (Palombello et al., Cell 78:773 (1994); Chen et al., Genes Dev. 9:1586 (1995)). […] Cell viability experiments were used to monitor the effectiveness of MG132 in enhancing TNF-induced cell killing.

[3] = system: HT1080 fibrosarcoma cells; test: Cell survival by crystal violet assay in HT1080V and HT1080I cells; type: cell-based, human
Procedure: HT1080V (open squares) and HT1080I cells (solid diamonds) were treated with TNFα (20 ng/ml) for varying times and surviving cells were quantified by crystal violet assay (Mehlen et al., EMBO J. 15:2695 (1996)). Data shown (FIG. 1A) are the mean of three independent experiments ±SD, and the percentage cell survival was defined as the relative number of TNF treated versus untreated cells.
HT1080V and HT1080I cells were preincubated with 10 ng/ml IL-1β (R & D Systems) for 5 hours (+Pre IL-1), or were left untreated. Cells were then treated with 10 μg/ml cycloheximide (CHX) and different concentrations of TNFα (0-50 ng/ml). Surviving cells were quantified by crystal violet assay (Mehlen et al., EMBO J. 15:2695 (1996)). […] Open squares represent HT1080V cells without IL-1 pretreatment; closed squares represent HT1080V cells pretreated with IL-1; circles represent HT1080I cells without IL-1 pretreatment; triangles represent HT1080I cells pretreated with IL-1.

[4] = system: NF-κB; test: Electrophoretic mobility-shift assay (EMSA) of NF-κB nuclear translocation in HT1080V and HT1080I cells; type: cell-based, human
Procedure: HT1080 fibrosarcoma cells were co-transfected with the pCMV empty vector to produce control cells HT1080V; HT1080 cells co-transfected with the pCMV vector containing a cDNA encoding the super-repressor IκBα and with the pCEP4 vector for hygromycin B selection (400 μg/ml) provided HT1080I cells that expressed the super-repressor IκBα.

[5] = system: HT1080V and HT1080I cells; test: Cell viability of HT1080V and HT1080I cells treated with cytotoxic agent (data not shown); type: cell-based, human
Procedure: The present inventors' preliminary data additionally indicate that cell killing by vincristine is augmented by the inhibition of NF-κB (data not shown). HT1080V and HT1080I cells were treated with vincristine and cell viability was determined.

[6] = system: HT1080 fibrosarcoma cells; test: TNF-induced apoptosis detected by TUNEL staining; type: cell-based, human; settings: 50 ng/ml TNFα for 7 hr; HT1080V and HT1080I cells; FIG. 1B
Procedure: TNF-induced apoptosis was detected by TUNEL staining (Graeber et al., Nature 379:88 (1996)). HT1080V (V) and HT1080I (I) cells were untreated (−TNF) or stimulated (+TNF) with 50 ng/ml TNFα for 7 hr and fixed with 4% paraformaldehyde. The staining was done according to the manufacturer's instructions (Boehringer Mannheim).

CCc1c2c(nc3ccc(OC(=O)N4CCC(N5CCCCC5)CC4)cc13)-c1cc3c(c(=O)n1C2)COC(=O)[C@]3(O)CC [CPT-11, irinotecan]
Activation of NF-κB [1]: determined to activate NF-κB

CC(C)C[C@@H](C=O)NC(=O)[C@H](CC(C)C)NC(=O)[C@H](CC(C)C)NC(=O)OCc1ccccc1 [MG132, Z-leu-leu-leu-H] (Cbz-Leu-Leu-Leu-aldehyde)
Enhancement of TNF-induced killing [2]: strongly enhanced TNF-induced killing of HT1080V cells

COc1cccc2c1C(=O)c1c(O)c3c(c(O)c1C2=O)C[C@@](O)(C(C)=O)C[C@@H]3O[C@H]1C[C@H](N)[C@H](O)[C@H](C)O1 [daunorubicin]
Cell survival after daunorubicin, HT1080I versus control cells ([3]; 0.1 to 2.0 μM for 24 hours, FIG. 3B): reduced in HT1080I cells

CN[C@@H]1C[C@H]2O[C@@](C)([C@@H]1OC)n1c3ccccc3c3c4c(c5c6ccccc6n2c5c31)C(=O)NC4 [staurosporine]
NF-κB nuclear translocation (EMSA) in control cells ([4]; HT1080V cells, 1 μM daunorubicin or 50 nM staurosporine): did not activate NF-κB; also recorded: only slight nuclear translocation of NF-κB was evident | Apoptosis induced in IκBα expressing cells versus control ([5]; HT1080I cells, data not shown): not enhanced by the expression of IκBα

CC[C@]1(O)C[C@H]2CN(CCc3c([nH]c4ccccc34)[C@@](C(=O)OC)(c3cc4c(cc3OC)N(C=O)[C@H]3[C@@](O)(C(=O)OC)[C@H](OC(C)=O)[C@]5(CC)C=CCN6CC[C@]43[C@@H]65)C2)C1 [vincristine]
Cell killing in HT1080I versus HT1080V cells ([5]; preliminary data, not shown): Cell killing in HT1080I cells was enhanced compared to that in HT1080V cells

IL-1: an activator of NF-κB that does not initiate apoptosis
Effect of pre-treatment on TNFα+CHX-induced apoptosis in HT1080V cells ([3]; 10 ng/ml IL-1β for 5 hours, then 10 μg/ml CHX and TNFα 0-50 ng/ml, FIG. 2A): inhibited TNFα+CHX-induced apoptosis in HT1080V cells | Effect of pre-treatment on CHX+TNF-induced killing in HT1080I cells ([3]; HT1080I cells, NF-κB activation blocked, FIG. 2A): no protective effect

TNFα
Cell survival after TNFα, HT1080I versus HT1080V ([3]; TNFα 20 ng/ml, varying times, FIG. 1A): Cell survival was reduced in HT1080I cells compared to HT1080V controls | Apoptotic morphology by TUNEL staining [6]: only super-repressor IκBα expressing cells showed apoptotic morphology

B1: super-repressor IκBα: mutant IκBα with serine to alanine mutations at residues 32 and 36; binds NF-κB and inhibits nuclear translocation (protein, UniProt P25963 1-317, looked up, variant S32A S36A)
NF-kappa-B inhibitor alpha: MFQAAERPQEWAMEGPRDGLKKERLLDDRHDAGLDAMKDEEYEQMVKELQEIRLEPQEVPRGSEPWKQQLTEDGDSFLHLAIIHEEKALTMEVIRQVKGDLAFLNFQNNLQQTPLHLAVITNQPEIAEALLGAGCDPELRDFRGNTPLHLACEQGCLASVGVLTQSCTTPHLHSILKATNYNGHTCLHLASIHGYLGIVELLVSLGADVNAQEPCNGRTALHLAVDLQNPDLVSLLLKCGADVNRVTYQGYSPYQLTWGRPSTRIQQQLGQLTLENLQMLPESEDEESYDTESEFTEFTEDELPYDDCVFGGQRLTL
Effect on TNF-stimulated NF-κB nuclear translocation (EMSA) ([4]; expressed in HT1080I cells, data not shown): efficiently blocked TNF-stimulated NF-κB nuclear translocation
